Measurements taken from patent publication US7049302B1, “Compositions of CPG and saponin adjuvants and uses thereof” (Antigenics Inc., priority 1998, dated 2006).

Experiments:
Assay type in all cases: in vivo, C57BL/6 mice
E.G7-OVA cells [1] = test: 51Cr release CTL assay, splenocytes of OVA-immunized mice stimulated in vitro with denatured OVA; details: 1.25 μg QS-21 alone (suboptimal dose), with 25 μg OVA, FIG. 2
Experimental: C57BL/6 mice (5 per group, female, 8–10 weeks of age) were immunized by subcutaneous route at days 1, 15, and 29. The vaccines were 25 μg OVA antigen plus the indicated doses of adjuvant in a total volume of 0.2 ml phosphate-buffered saline. […] (Weiner, et al., Proc. Natl. Acad. Sci. 94:10833 (1997).) Splenocytes were removed at day 42 for use as effector cells in the CTL assay. They were stimulated in vitro for 6 days with mitomycin C-treated E.G7-OVA cells and then used in a standard ^51Cr release CTL assay. E.G7-OVA cells (loaded with ^51Cr) were used as target cells. The background lysis of EL4 cells (not transfected by OVA) was subtracted from the lysis of E.G7-OVA cells to obtain a percent (%) antigen-specific lysis.
Splenocytes from mice immunized as described in FIG. 1 were used in a CTL assay. Splenocytes were stimulated in vitro with denatured OVA for six days prior to use in the CTL assay. The assay was carried out against E.G7-OVA cells as described in Example 1.

E.G7-OVA cells [2] = test: 51Cr release CTL assay, splenocytes of OVA-immunized mice stimulated in vitro with mitomycin C-treated E.G7-OVA cells; details: 1.25 μg QS-21 alone (suboptimal dose), with 25 μg OVA s.c. days 1, 15, 29; splenocytes day 42; FIG. 1
Experimental: C57BL/6 mice (5 per group, female, 8–10 weeks of age) were immunized by subcutaneous route at days 1, 15, and 29. The vaccines were 25 μg OVA antigen plus the indicated doses of adjuvant in a total volume of 0.2 ml phosphate-buffered saline. […] They were stimulated in vitro for 6 days with mitomycin C-treated E.G7-OVA cells and then used in a standard ^51Cr release CTL assay. E.G7-OVA cells (loaded with ^51Cr) were used as target cells. The background lysis of EL4 cells (not transfected by OVA) was subtracted from the lysis of E.G7-OVA cells to obtain a percent (%) antigen-specific lysis.

OVA = test: Serum IgG1 and IgG2a titers to OVA by EIA; details: sera day 42
Experimental: Serum titers to OVA were determined by EIA on sera collected on day 42 from the mice immunized as described in Example 1. IgG subclass IgG1 and IgG2a titers were determined for individual mice (5 mice per group) and are plotted as a geometric mean titer.

Substance: QS-21
- antigen-specific lysis (CTL) (E.G7-OVA cells [1]): no lysis
- antigen-specific lysis (CTL) (E.G7-OVA cells [2]): no lysis
- OVA-specific IgG1 titer, enhancement over the unadjuvanted group (OVA; 10 μg QS-21 alone, geometric mean titer, among the highest groups, FIG. 3): ~10 fold
- OVA-specific IgG2a response (OVA; any QS-21 dose used alone): not detected
